Read-outs that look alike come from different tables or passages of the source. Non-standard residues stand in square brackets, D forms with d. Residues, ends and D or L forms follow the SMILES beside them. Nle = CCCC[C@H](N)C(=O)O
Columns and labels:
[1] = tested on: rat; assay: Systemic arterial blood pressure during renal artery infusion
[2] = tested on: rat; details: in vivo

Compound: CC[C@H](C)[C@H](NC(=O)[C@H](Cc1ccc(O)cc1)NC(=O)[C@@H](N)CCCCN)C(=O)N[C@@H](Cc1c[nH]cn1)C(=O)N1CCC[C@H]1C(=O)N[C@@H](Cc1ccccc1)C(=O)O [KYIHPF] (H-KYIHPF-OH)
- effect on arterial blood pressure [1]: no significant changes in arterial blood pressure

Compound: CCCC[C@H](N)C(=O)N[C@@H](Cc1ccc(O)cc1)C(=O)N[C@H](C(=O)N[C@@H](Cc1cnc[nH]1)C(=O)N1CCC[C@H]1C(=O)N[C@@H](Cc1ccccc1)C(=O)O)[C@@H](C)CC [NleYIHPF] (H-[Nle]YIHPF-OH)
- effect on arterial blood pressure [2]: no effect on mean arterial pressure
